The results in this text go back to patent US5153352A, “Process for preparation of intermediates of carbocyclic nucleoside analogs” (priority 1990, dated 1992).

SMILES strings stand for the structures. ≈ marks a conversion by molar mass, not a printed value. Counter-ions that a name gives are not always drawn.

The test system of one data set is Herpes simplex type 2 (HSV-2) strain MS. Nature of the data set: CPE-inhibition assay, HSV-2 strain MS in Vero cells. As to conditions: HSV-2 (MS), Vero.
For `Nc1ccn(C2CC(CO)C2CO)c(=O)n1` (stereo not shown) [Example 3, 1-(2',3'-Bis(hydroxymethyl)cyclobutyl)cytosine], the “TI (Therapeutic Index, MTC/ID50)” value is 6.34.

Regarding `OCC1CC(n2cnc3c(Cl)ncnc32)C1` (stereo not shown) [Example 8E, 3-(6'-chloro-9'H-purin-9'-yl)cyclobutanemethanol], the “TI (Therapeutic Index, MTC/ID50)” value is recorded as 1.8.

In the case of `CC(=O)OCC1CC(n2cnc3c(=O)[nH]c(N)nc32)C1COC(C)=O` (stereo not shown) [Example 20, 9-(2,'3,'-Bis(acetoxymethyl)cyclobutyl)guanine], the “TI (Therapeutic Index, MTC/ID50)” value was 6.4.

Consider `NCC1CC(n2cnc3c(Cl)ncnc32)C1` (stereo not shown) [Example 21, 3-(6'-Chloro-9'H-purin-9'-yl)-aminomethylcyclobutane hydrochloride], for which the “TI (Therapeutic Index, MTC/ID50)” value is listed as 4.3.

The data set is the same for the next values; noted with them: HSV-2 (MS), Vero; >1.0 definite, 0.5-0.9 marginal to moderate, <0.5 no significant activity.
With `Nc1ccn(C2CC(CO)C2CO)c(=O)n1` (stereo not shown) [Example 3, 1-(2',3'-Bis(hydroxymethyl)cyclobutyl)cytosine], the “VR (Virus Rating)” value worked out at 2.0.

`OCC1CC(n2cnc3c(Cl)ncnc32)C1` (stereo not shown) [Example 8E, 3-(6'-chloro-9'H-purin-9'-yl)cyclobutanemethanol]: the “VR (Virus Rating)” value was determined as 1.35.

`CC(=O)OCC1CC(n2cnc3c(=O)[nH]c(N)nc32)C1COC(C)=O` (stereo not shown) [Example 20, 9-(2,'3,'-Bis(acetoxymethyl)cyclobutyl)guanine]: the “VR (Virus Rating)” value worked out at 1.9.

In the case of `NCC1CC(n2cnc3c(Cl)ncnc32)C1` (stereo not shown) [Example 21, 3-(6'-Chloro-9'H-purin-9'-yl)-aminomethylcyclobutane hydrochloride], the “VR (Virus Rating)” value amounted to 1.2.

Turning to `Nc1nc2c(nc(Br)n2C2CC(CO)C2CO)c(=O)[nH]1` (stereo not shown) [Example 23], the “VR (Virus Rating)” value amounted to 0.7.

The same data set, now with this note: Human alphaherpesvirus 2, Vero, read-out: ID50 (minimum drug concentration that inhibited the CPE by 50%), HSV-2 (MS), Vero.
As to `Nc1ccn(C2CC(CO)C2CO)c(=O)n1` (stereo not shown) [Example 3, 1-(2',3'-Bis(hydroxymethyl)cyclobutyl)cytosine], the EC50 came to 50.5 µg/mL (≈ 224 µM).

As for `OCC1CC(n2cnc3c(Cl)ncnc32)C1` (stereo not shown) [Example 8E, 3-(6'-chloro-9'H-purin-9'-yl)cyclobutanemethanol], the EC50 came out at 54.7 µg/mL (≈ 229 µM).

With `CC(=O)OCC1CC(n2cnc3c(=O)[nH]c(N)nc32)C1COC(C)=O` (stereo not shown) [Example 20, 9-(2,'3,'-Bis(acetoxymethyl)cyclobutyl)guanine], the EC50 worked out at 15.7 µg/mL (≈ 44.9 µM).

As for `NCC1CC(n2cnc3c(Cl)ncnc32)C1` (stereo not shown) [Example 21, 3-(6'-Chloro-9'H-purin-9'-yl)-aminomethylcyclobutane hydrochloride], the EC50 turned out to be 75 µg/mL.

The next data set concerns Herpes simplex type 1 (HSV-1) strain E-377. Kind of data set: CPE-inhibition assay, HSV-1 strain E-377 in Vero cells. To be noted: HSV-1 (E-377), Vero.
For `Nc1ccn(C2CC(CO)C2CO)c(=O)n1` (stereo not shown) [Example 3, 1-(2',3'-Bis(hydroxymethyl)cyclobutyl)cytosine], the “TI (Therapeutic Index, MTC/ID50)” value was found to be 31.8.

As to `Nc1ncc2ncn(C3CC(CO)C3CO)c2n1` (stereo not shown) [Example 7, 3-(2'-Amino-9'H-purin-9'-yl)-1,2-bis(hydroxymethyl)cyclobutane], the “TI (Therapeutic Index, MTC/ID50)” value was 1.2.

Regarding `CC(=O)OCC1CC(n2cnc3c(=O)[nH]c(N)nc32)C1COC(C)=O` (stereo not shown) [Example 20, 9-(2,'3,'-Bis(acetoxymethyl)cyclobutyl)guanine], the “TI (Therapeutic Index, MTC/ID50)” value is on record as 8.2.

Regarding `NCC1CC(n2cnc3c(Cl)ncnc32)C1` (stereo not shown) [Example 21, 3-(6'-Chloro-9'H-purin-9'-yl)-aminomethylcyclobutane hydrochloride], the “TI (Therapeutic Index, MTC/ID50)” value turned out to be 3.6.

As to `Nc1nc2c(nc(Br)n2C2CC(CO)C2CO)c(=O)[nH]1` (stereo not shown) [Example 23], the “TI (Therapeutic Index, MTC/ID50)” value was 3.2.

Staying with this data set, now noted: HSV-1 (E-377), Vero; >1.0 definite, 0.5-0.9 marginal to moderate, <0.5 no significant activity.
For `Nc1ccn(C2CC(CO)C2CO)c(=O)n1` (stereo not shown) [Example 3, 1-(2',3'-Bis(hydroxymethyl)cyclobutyl)cytosine], the “VR (Virus Rating)” value amounted to 3.6.

Turning to `Nc1ncc2ncn(C3CC(CO)C3CO)c2n1` (stereo not shown) [Example 7, 3-(2'-Amino-9'H-purin-9'-yl)-1,2-bis(hydroxymethyl)cyclobutane], the “VR (Virus Rating)” value is 0.55.

As for `OCC1CC(n2cnc3c(Cl)ncnc32)C1` (stereo not shown) [Example 8E, 3-(6'-chloro-9'H-purin-9'-yl)cyclobutanemethanol], the “VR (Virus Rating)” value was determined as 0.9.

`CC(=O)OCC1CC(n2cnc3c(=O)[nH]c(N)nc32)C1COC(C)=O` (stereo not shown) [Example 20, 9-(2,'3,'-Bis(acetoxymethyl)cyclobutyl)guanine]: the “VR (Virus Rating)” value is listed as 2.2.

Consider `NCC1CC(n2cnc3c(Cl)ncnc32)C1` (stereo not shown) [Example 21, 3-(6'-Chloro-9'H-purin-9'-yl)-aminomethylcyclobutane hydrochloride], for which the “VR (Virus Rating)” value is on record as 1.0.

As for `Nc1nc2c(nc(Br)n2C2CC(CO)C2CO)c(=O)[nH]1` (stereo not shown) [Example 23], the “VR (Virus Rating)” value worked out at 1.7.

Still in this data set, the particulars now being: Human alphaherpesvirus 1, Vero, read-out: ID50 (minimum drug concentration that inhibited the CPE by 50%), HSV-1 (E-377), Vero.
As to `Nc1ccn(C2CC(CO)C2CO)c(=O)n1` (stereo not shown) [Example 3, 1-(2',3'-Bis(hydroxymethyl)cyclobutyl)cytosine], the EC50 worked out at 10.1 µg/mL (≈ 44.7 µM).

For `Nc1ncc2ncn(C3CC(CO)C3CO)c2n1` (stereo not shown) [Example 7, 3-(2'-Amino-9'H-purin-9'-yl)-1,2-bis(hydroxymethyl)cyclobutane], the EC50 was 271 µg/mL (≈ 1090 µM).

Turning to `CC(=O)OCC1CC(n2cnc3c(=O)[nH]c(N)nc32)C1COC(C)=O` (stereo not shown) [Example 20, 9-(2,'3,'-Bis(acetoxymethyl)cyclobutyl)guanine], the EC50 was 12.1 µg/mL (≈ 34.6 µM).

For the molecule `NCC1CC(n2cnc3c(Cl)ncnc32)C1` (stereo not shown) [Example 21, 3-(6'-Chloro-9'H-purin-9'-yl)-aminomethylcyclobutane hydrochloride], the EC50 worked out at 88 µg/mL.

`Nc1nc2c(nc(Br)n2C2CC(CO)C2CO)c(=O)[nH]1` (stereo not shown) [Example 23]: the EC50 came to 100 µg/mL (≈ 291 µM).

Tested on in a further data set: not listed separately
Nature of the data set: drug cytotoxicity in Vero cells (CPE-inhibition assay). As to conditions: monkey, vero cells, MTC (minimum drug concentration causing any cytotoxicity), Vero, HSV-1 (E-377) experiment.
Turning to `Nc1ccn(C2CC(CO)C2CO)c(=O)n1` (stereo not shown) [Example 3, 1-(2',3'-Bis(hydroxymethyl)cyclobutyl)cytosine], the MCC came out at 320 µg/mL.

Turning to `Nc1ncc2ncn(C3CC(CO)C3CO)c2n1` (stereo not shown) [Example 7, 3-(2'-Amino-9'H-purin-9'-yl)-1,2-bis(hydroxymethyl)cyclobutane], the MCC stood at 320 µg/mL.

In turn, `OCC1CC(n2cnc3c(Cl)ncnc32)C1` (stereo not shown) [Example 8E, 3-(6'-chloro-9'H-purin-9'-yl)cyclobutanemethanol] came in with an MCC of 320 µg/mL.

`CC(=O)OCC1CC(n2cnc3c(=O)[nH]c(N)nc32)C1COC(C)=O` (stereo not shown) [Example 20, 9-(2,'3,'-Bis(acetoxymethyl)cyclobutyl)guanine] returned an MCC of 100 µg/mL.

Take `NCC1CC(n2cnc3c(Cl)ncnc32)C1` (stereo not shown) [Example 21, 3-(6'-Chloro-9'H-purin-9'-yl)-aminomethylcyclobutane hydrochloride]: the MCC turned out to be 320 µg/mL.

With `Nc1nc2c(nc(Br)n2C2CC(CO)C2CO)c(=O)[nH]1` (stereo not shown) [Example 23], the MCC is above 320 µg/mL.

Staying with this data set, now noted: monkey, vero cells, MTC (minimum drug concentration causing any cytotoxicity), Vero, HSV-2 (MS) experiment.
Molecule `Nc1ccn(C2CC(CO)C2CO)c(=O)n1` (stereo not shown) [Example 3, 1-(2',3'-Bis(hydroxymethyl)cyclobutyl)cytosine] gave an MCC of 320 µg/mL.

For `OCC1CC(n2cnc3c(Cl)ncnc32)C1` (stereo not shown) [Example 8E, 3-(6'-chloro-9'H-purin-9'-yl)cyclobutanemethanol], the MCC was determined as 100 µg/mL.

Turning to `CC(=O)OCC1CC(n2cnc3c(=O)[nH]c(N)nc32)C1COC(C)=O` (stereo not shown) [Example 20, 9-(2,'3,'-Bis(acetoxymethyl)cyclobutyl)guanine], the MCC is 100 µg/mL.

`NCC1CC(n2cnc3c(Cl)ncnc32)C1` (stereo not shown) [Example 21, 3-(6'-Chloro-9'H-purin-9'-yl)-aminomethylcyclobutane hydrochloride]: the MCC was 320 µg/mL.

For the molecule `Nc1nc2c(nc(Br)n2C2CC(CO)C2CO)c(=O)[nH]1` (stereo not shown) [Example 23], the MCC was above 320 µg/mL.
